Reference: patent US5591438A, “Natamycin recovery” (Bio-Technical Resources L.P., priority 1994, dated 1997)
≈ marks a conversion by molar mass, not a printed value.

Key:
Format in all cases: physicochemical
[1] = Natamycin methyl ester formation in methanol (stability of natamycin in acidified methanol)
Experimental: Formation of natamycin methyl ester, an undesired by-product, depends on the pH, the natamycin-methanol contact time, and the temperature (see Table 1). It is important that this step be carried out at a temperature of about 0°-25° C., since formation of natamycin methyl ester and other undesirable by-products is minimized. The higher the temperature or the longer the contact time, the greater the by-product production at a given pH. To avoid excessive natamycin methyl ester formation at 15°-25° C., short contact times, i.e., 0.5 hr or less, should be used. At about […], the extraction time should not exceed about 1.5 hr. An extraction temperature of about 0°-15° C. is preferred.
Natamycin Methyl Ester Formation in Methanol

physchem [2] = settings: methanol/cacl2, organic solvent or mixture, Solubility of Natamycin in Methanol/CaCl2 Extractant
From the text: To precipitate a high percentage of the natamycin, the water content of the extraction liquor should be increased to at least 50% by volume. Table 3 indicates the solubility of natamycin in a methanol/water/calcium chloride solution as a function of water content.
Solubility of Natamycin in Methanol/CaCl2 *
Extractant at Various Water Concentrations

physchem [3] = test: physchem
From the text: Since water content of the extraction medium depends on the amount of water in the feed stream, it is desirable to remove as much water as possible from the feed stream before Step 1. If the feed stream contains about 70% by volume water, about three times as much methanol is required than when starting with a substantially dry feed stream. If the feed stream contains about 40% by volume water, about twice as much methanol is required.
The pH depends to some extent on the water content of the extraction medium and the yield desired. To obtain a precipitation yield of about 90% or more, the natamycin concentration in the extraction medium should be about 40 g/L. In the absence of water this requires a pH of about 4.5. At about 30% water/70% methanol (by volume) this requires a pH of about 2.5 (Table 2).
Solubility of Natamycin in Methanol and Methanol/Water

[4] = Ester formation in methanol with 40 g/L CaCl2 (stability of natamycin); settings: for Methyl Ester (% of product) / Natamycin (concentration in methanol with CaCl2): methanol with 40 g/L CaCl2
Experimental: This process can be run at pH 2-9, preferably at pH 6-8. If the pH is low, shorter extraction times should be used because acidic conditions promote natamycin methyl ester formation. (See Table 4) If the pH is above 6, ester formation is slower. Any reasonable temperature may be used (i.e. 20°-30° C.).
Ester Formation in Methanol with 40 g/L CaCl2

C[C@@H]1C/C=C/C=C/C=C/C=C/[C@H](O[C@@H]2O[C@H](C)[C@@H](O)[C@H](N)[C@@H]2O)C[C@@H]2O[C@](O)(C[C@@H](O)C[C@H]3O[C@@H]3/C=C/C(=O)O1)C[C@H](O)[C@H]2C(=O)O [Natamycin, natamycin]
Methyl Ester (% by weight of product) ([1]; 4 °C, pH 2.4, 0 hr): 0.4 % by weight of product
Natamycin (concentration in methanol) ([1]; 4 °C, pH 2.4, 0 hr): 42 g/L
Methyl Ester (% by weight of product) ([1]; 4 °C, pH 2.4, 2 hr): 1.3 % by weight of product
Natamycin (concentration in methanol) ([1]; 4 °C, pH 2.4, 2 hr): 42 g/L
Methyl Ester (% by weight of product) ([1]; 4 °C, pH 2.4, 8.5 hr): 2.7 % by weight of product
Natamycin (concentration in methanol) ([1]; 4 °C, pH 2.4, 8.5 hr): 39 g/L
Methyl Ester (% by weight of product) ([1]; 4 °C, pH 2.4, 19 hr): 5.2 % by weight of product
Natamycin (concentration in methanol) ([1]; 4 °C, pH 2.4, 19 hr): 37 g/L
Methyl Ester (% by weight of product) ([1]; 23 °C, pH 2.4, 0 hr): 0 % by weight of product
Natamycin (concentration in methanol) ([1]; 23 °C, pH 2.4, 0 hr): 44 g/L
Methyl Ester (% by weight of product) ([1]; 23 °C, pH 2.4, 1 hr): 3.9 % by weight of product
Natamycin (concentration in methanol) ([1]; 23 °C, pH 2.4, 1 hr): 42 g/L
Methyl Ester (% by weight of product) ([1]; 23 °C, pH 2.4, 2 hr): 7.3 % by weight of product
Natamycin (concentration in methanol) ([1]; 23 °C, pH 2.4, 2 hr): 41 g/L
Methyl Ester (% by weight of product) ([1]; 23 °C, pH 2.4, 3 hr): 9.7 % by weight of product
Natamycin (concentration in methanol) ([1]; 23 °C, pH 2.4, 3 hr): 38 g/L
Methyl Ester (% by weight of product) ([1]; 23 °C, pH 3.2, 0 hr): 0 % by weight of product
Natamycin (concentration in methanol) ([1]; 23 °C, pH 3.2, 0 hr): 38 g/L
Methyl Ester (% by weight of product) ([1]; 23 °C, pH 3.2, 1 hr): 2.3 % by weight of product
Natamycin (concentration in methanol) ([1]; 23 °C, pH 3.2, 1 hr): 38 g/L
Methyl Ester (% by weight of product) ([1]; 23 °C, pH 3.2, 2 hr): 3.9 % by weight of product
Natamycin (concentration in methanol) ([1]; 23 °C, pH 3.2, 2 hr): 37 g/L
Methyl Ester (% by weight of product) ([1]; 23 °C, pH 3.2, 4 hr): 7.4 % by weight of product
Natamycin (concentration in methanol) ([1]; 23 °C, pH 3.2, 4 hr): 34 g/L
Methyl Ester (% by weight of product) ([1]; 23 °C, pH 3.2, 6 hr): 9.2 % by weight of product
Natamycin (concentration in methanol) ([1]; 23 °C, pH 3.2, 6 hr): 32 g/L
Methyl Ester (% by weight of product) ([1]; 23 °C, pH 3.2, 16 hr): 14 % by weight of product
Natamycin (concentration in methanol) ([1]; 23 °C, pH 3.2, 16 hr): 23 g/L
Methyl Ester (% by weight of product) ([1]; 23 °C, pH 4.0, 0 hr): 0 % by weight of product
Natamycin (concentration in methanol) ([1]; 23 °C, pH 4.0, 0 hr): 41 g/L
Methyl Ester (% by weight of product) ([1]; 23 °C, pH 4.0, 2 hr): 2.3 % by weight of product
Natamycin (concentration in methanol) ([1]; 23 °C, pH 4.0, 2 hr): 40 g/L
Methyl Ester (% by weight of product) ([1]; 23 °C, pH 4.0, 4 hr): 3.7 % by weight of product
Natamycin (concentration in methanol) ([1]; 23 °C, pH 4.0, 4 hr): 39 g/L
solubility (physchem [2]): 91 mg/mL (≈ 137 mM)
solubility in methanol (physchem [3]): excellent solubility
solubility in the extraction medium after acid addition (physchem [3]): highly soluble
solubility of natamycin in the extraction medium (physchem [3]): decreases as the water increases
solubility (physchem [3]; methanol, pH 2, organic solvent or mixture): 94 mg/mL (≈ 141 mM)
solubility (physchem [3]; methanol, pH 3.8, organic solvent or mixture): 78 mg/mL (≈ 117 mM)
solubility (physchem [3]; methanol, pH 4.5, organic solvent or mixture): 50 mg/mL (≈ 75.1 mM)
solubility (physchem [3]; methanol, pH 7, organic solvent or mixture): 6 mg/mL (≈ 9.01 mM)
solubility (physchem [3]; methanol/water, pH 2.4, organic solvent or mixture): 55 mg/mL (≈ 82.6 mM)
solubility (physchem [3]; methanol/water, pH 3.3, organic solvent or mixture): 18 mg/mL (≈ 27 mM)
solubility (physchem [3]; methanol/water, pH 7, organic solvent or mixture): 4 mg/mL (≈ 6.01 mM)
Methyl Ester (% of product) ([4]; 5 °C, pH 4.4, 0 hr): 0 % of product
Natamycin (concentration in methanol with CaCl2) ([4]; 5 °C, pH 4.4, 0 hr): 60 g/L
Methyl Ester (% of product) ([4]; 5 °C, pH 4.4, 8 hr): 0.5 % of product
Natamycin (concentration in methanol with CaCl2) ([4]; 5 °C, pH 4.4, 8 hr): 60 g/L
Methyl Ester (% of product) ([4]; 23 °C, pH 4.4, 0 hr): 0 % of product
Natamycin (concentration in methanol with CaCl2) ([4]; 23 °C, pH 4.4, 0 hr): 72 g/L
Methyl Ester (% of product) ([4]; 23 °C, pH 4.4, 6 hr): 5.0 % of product
Natamycin (concentration in methanol with CaCl2) ([4]; 23 °C, pH 4.4, 6 hr): 67 g/L
Methyl Ester (% of product) ([4]; 23 °C, pH 5.3, 0 hr): 0 % of product
Natamycin (concentration in methanol with CaCl2) ([4]; 23 °C, pH 5.3, 0 hr): 51 g/L
Methyl Ester (% of product) ([4]; 23 °C, pH 5.3, 20 hr): 2.4 % of product
Natamycin (concentration in methanol with CaCl2) ([4]; 23 °C, pH 5.3, 20 hr): 48 g/L
Methyl Ester (% of product) ([4]; 23 °C, pH 6.1, 0 hr): 0 % of product
Natamycin (concentration in methanol with CaCl2) ([4]; 23 °C, pH 6.1, 0 hr): 51 g/L
Methyl Ester (% of product) ([4]; 23 °C, pH 6.1, 20 hr): 1.1 % of product
Natamycin (concentration in methanol with CaCl2) ([4]; 23 °C, pH 6.1, 20 hr): 49 g/L
natamycin methyl ester formation ([4]; methanol/CaCl2, pH above 6): slower
